Data reported in patent US9855273B2, “Combination therapy for MDS” (priority 2013, dated 2018).

Key:
[1] = system: MDSL cells; assay: Cell cycle analysis by BrdU/7AAD; format: cell-based, human; conditions: 10 μM, up to 6 days
Description: MDS/AML cell lines with hyperphosphorylated IRAK1 (FIG. 1D) were evaluated for sensitivity to IRAK-Inh. MDS/AML cell lines exposed to increasing concentration of IRAK-Inh were cultured for up to 6 days in vitro (FIG. 3A). […] In support of this observation, the inhibitory effect of IRAK-Inh on the cell lines correlated with the level of phosphorylated IRAK1 (R2=0.36; FIG. 3B). In parallel, cell viability was examined after 48 hrs of treatment with the IRAK-Inh. […] To investigate whether IRAK-Inh affects cell cycle progression, MDSL cells were treated with 10 μM IRAK-Inh for up to 6 days and evaluated by BrdU/7AAD staining (FIG. 3D).

[2] = system: MDS/AML cell lines (MDSL, TF1, THP1, HL60); assay: Viable cell growth (trypan blue exclusion) of MDS/AML cell lines; format: cell-based, human
Description: Acute myeloid leukemic cell lines, HL60, THP1, and TF-1 were purchased from the American Type Culture Collection. MOLM13 were purchased from AddexBio. The myelodysplastic cell line, MDS-L, was provided by Dr. Kaoru Tohyama (Kawasaki Medical School, Okayama, Japan) (Matsuoka et al., 2010). […] Additionally, both the MDSL and TF-1 cell lines were cultured in the presence of 10 ng/mL human recombinant IL-3 (Stemcell Technologies).

[3] = system: primary AML marrow cells; assay: Growth/viability of primary AML marrow cells; format: cell-based, human
Description: AML patient samples were acquired following informed consent and under the direction of IRB approved protocols.

[4] = system: MDSL cells; assay: MDSL xenograft, in vivo i.p. delivery after engraftment, NSG mice
Description: Xenograftment of NOD/SCID-IL2Rγ(NSG) and NSG-hSCF/hGM-CSF/hIL3 (NSGS) MDSL cells (1×10^6-5×10^6) were injected into the tail veins of 8-week old sublethally irradiated ([…]) NSG or NSG animals engineered to express human SCF, GM-CSF, and IL3 (NSGS) as previously described (Wunderlich et al., 2010). Mice were monitored by performing complete blood counts (Drew Hemavet 950FS). Following red cell lysis, human MDSL cells were identified by hCD45-FITC staining. In vivo delivery of IRAK-Inh approach is adapted from previous reports (Yang et al., 2011): IRAK-Inh was diluted in DMSO (5 mM) and further dissolved in sterile phosphate buffered saline (PBS; pH 7.2). Animals were injected i.p. with 2.12 mg/kg IRAK-Inh 3× weekly.
To determine whether IRAK-Inh can delay human MDS-like disease in vivo, MDSL were pre-treated with IRAK-Inh (10 μM) for 24 hrs in vitro and subsequently injected intravenously (i.v.) into NSG (5×10^6 cells) and NSGS (1×10^6 cells) recipient mice (FIG. 4A). This approach permitted us to evaluate the cell autonomous effect of IRAK-Inh on MDS cell viability and engraftment without altering endogenous IRAK1 function in the mouse. […] In addition, the human MDSL graft was reduced from 8% to 2% (FIG. 4D). Morphological assessment confirmed normal RBC and reduced MDS grafts in the peripheral blood and marrow of mice transplanted with IRAK-Inh-treated MDSL cells (FIG. 4E). […]

[5] = system: MDS/AML cell lines; assay: Colony formation in methylcellulose, MDS/AML cell lines; format: cell-based, human
Description: (§2) The effect of IRAK-Inh on leukemic progenitor function was evaluated in methylcellulose containing IRAK-Inh. […] As an alternative approach, MDS/AML cells were pre-treated with IRAK-Inh for 24 hours and then plated in methylcellulose.

[6] = target: Lck (Homo sapiens, UniProt P06239); conditions: read-out: IC50 Lck; Powers et al., 2006; cited from earlier work
[7] = system: NF-κB (RelA/p65); conditions: MDS/AML cell lines (THP1, HL60), 10 μM, 24 hrs
Description: (§1) Annexin V analysis was carried out as previously described (Fang et al., 2012). Cells were stained after either drug treatment or lentiviral transduction with Annexin V (eBioscience) and propidium iodide (Sigma-Aldrich), or 7AAD (eBioscience) according to the manufacturer's instructions. Analysis was performed using BD FACSCalibur or FACSCanto flow cytometer with either CellQuest or Diva software. For in vitro growth assays, cell expansion in liquid culture was determined based on trypan blue exclusion using an automated cell counter (BioRad TC10). For experiments beyond 48 hrs, cells were replenished with fresh media and drug every second day. For primary patient marrow cells, cell were treated with a single inhibitor dose and counted 24 and 48 hours later. NF-κB DNA-binding assay Nuclear lysates were isolated from treated cells as previously described (Starczynowski et al., 2011). NF-κB (p65) DNA binding was measured using an ELISA-based assay according to the manufacturer's recommendations (KHO0371, Invitrogen)

[8] = system: MDS patient marrow cells; conditions: 48 hrs
Description: as §1

[9] = system: normal cord blood-derived CD34+ cells; assay: Growth and viability of normal CD34+ cells; format: cell-based, human; conditions: even high doses
Description: Acute myeloid leukemic cell lines, HL60, THP1, and TF-1 were purchased from the American Type Culture Collection. MOLM13 were purchased from AddexBio. The myelodysplastic cell line, MDS-L, was provided by Dr. Kaoru Tohyama (Kawasaki Medical School, Okayama, Japan) (Matsuoka et al., 2010). Cell-lines were cultured in RPMI 1640 medium with 10% FBS and 1% penicillin-streptomycin. Additionally, both the MDSL and TF-1 cell lines were cultured in the presence of 10 ng/mL human recombinant IL-3 (Stemcell Technologies). […] Human CD34+ UCB cells and primary MDS/AML cells were maintained in StemSpan Serum-Free Expansion Media (Stemcell Technologies) supplemented with 10 ng/mL of recombinant human stem cell factor (SCF), Flt3 ligand (Flt3L), thrombopoietin (TPO), IL-3, and IL-6 (Stemcell Technologies).

[10] = system: normal CD34+ cells; assay: Colony formation in methylcellulose, normal CD34+ cells
Description: as §2

[11] = target: pp60^Src (Homo sapiens, UniProt P12931); conditions: read-out: IC50 pp60Src; Powers et al., 2006; cited from earlier work
Sequence of pp60^Src (P12931 whole entry): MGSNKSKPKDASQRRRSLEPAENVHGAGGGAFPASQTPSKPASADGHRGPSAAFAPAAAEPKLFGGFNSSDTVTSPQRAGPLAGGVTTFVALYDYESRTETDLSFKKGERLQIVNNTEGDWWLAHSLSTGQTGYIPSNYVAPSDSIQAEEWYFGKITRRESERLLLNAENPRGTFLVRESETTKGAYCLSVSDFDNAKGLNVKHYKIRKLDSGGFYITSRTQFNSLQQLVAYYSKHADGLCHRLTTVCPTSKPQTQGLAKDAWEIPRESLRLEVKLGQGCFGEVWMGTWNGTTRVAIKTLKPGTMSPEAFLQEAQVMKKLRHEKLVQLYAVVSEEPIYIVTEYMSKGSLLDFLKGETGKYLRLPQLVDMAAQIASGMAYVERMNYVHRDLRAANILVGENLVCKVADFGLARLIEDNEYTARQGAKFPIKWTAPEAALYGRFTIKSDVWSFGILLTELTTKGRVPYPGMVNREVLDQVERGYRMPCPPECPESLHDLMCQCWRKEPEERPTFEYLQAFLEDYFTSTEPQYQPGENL

Sequence of Lck (P06239 whole entry, species assumed): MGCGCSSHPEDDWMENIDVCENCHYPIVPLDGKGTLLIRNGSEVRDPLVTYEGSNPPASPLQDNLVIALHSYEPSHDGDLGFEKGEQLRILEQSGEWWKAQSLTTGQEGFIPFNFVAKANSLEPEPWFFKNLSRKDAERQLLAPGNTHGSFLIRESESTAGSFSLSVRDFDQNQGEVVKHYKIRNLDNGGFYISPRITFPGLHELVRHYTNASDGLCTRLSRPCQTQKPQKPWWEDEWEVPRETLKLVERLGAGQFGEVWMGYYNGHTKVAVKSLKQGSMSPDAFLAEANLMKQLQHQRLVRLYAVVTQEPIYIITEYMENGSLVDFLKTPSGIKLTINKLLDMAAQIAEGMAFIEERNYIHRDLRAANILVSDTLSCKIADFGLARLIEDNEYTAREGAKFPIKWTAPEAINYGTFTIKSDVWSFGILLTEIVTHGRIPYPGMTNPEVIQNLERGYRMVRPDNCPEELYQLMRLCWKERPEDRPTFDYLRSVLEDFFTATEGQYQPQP

With `O=C(Nc1nc2ccccc2n1CCN1CCOCC1)c1cccc([N+](=O)[O-])c1` [IRAK-Inh, N-(2-morpholinylethyl)-2-(3-nitrobenzoylamido)-benzimidazole] the “proportion in G0/G1” value [1] was 62.7%±1.1, the “proportion of sub-G0 cells” value [1] was 5.4%±0.3 and the “viable cells in S phase” value [1] was 4.3%±0.4. The “viability of HL60 cells” value ([2]; HL60) was “only modestly reduced”, the “sensitivity of HL60 cells” value ([2]; HL60, IRAK-Inh 10 μM, ABT-263 0.1 μM, alone or combined) was “refractory” and the “MDS/AML cell line growth and survival” value ([2]; IRAK-Inh 10 μM, ABT-263 0.1 μM, alone or co-treatment) was “modest effects”. The cell proliferation ([2]; MDSL, TF1 and THP1, 0-10 μM, up to 6 days) was “dose-dependent impairment”, the “growth of AML marrow cells” value [3] was “continued to grow similar to control-treated cells” and the “viability of primary AML marrow cells” value [3] was “only modestly reduced”. For the same compound, the “HCT and Hb levels” value ([4]; 2.12 mg/kg i.p. 3×/week from day 6) was “maintained HCT and Hb levels”, the “human graft in peripheral blood (hCD45)” value ([4]; within ~7 days of receiving 2.12 mg/kg i.p. 3×/week) was “reduced human graft in the peripheral blood” and the “colony formation, methylcellulose containing inhibitor” value ([5]; all MDS/AML cells, continuous treatment) was “significantly fewer colonies”. The “colony formation after transient exposure” value ([5]; pre-treated 24 hr, 10 μM, then plated) was “significantly fewer colonies”, the IC50 [6] was over 10 µM and the “DNA bound and active RelA/p65 decreased by” value [7] was about 50%. For the same compound, the “expansion of MDS marrow cells” value [8] was “failed to expand”, the “apoptotic cells in MDS marrow cells” value ([8]; except for MDS-07) was “increased levels of apoptotic cells” and the “proliferation of normal CD34+ cells” value [9] was “not affected”. For the same compound, the “control CD34+ cell progenitor function” value [10] was “did not affect”, the “colony formation, methylcellulose containing inhibitor” value ([10]; normal CD34+) was “equivalent number of colonies” and the IC50 [11] was over 10 µM.
